# Patent US11939334B2, “Substituted pyrimido[4,5-b][1,4]diazepines as PLK1 degradation inducers” (UPPTHERA, INC., priority 2021, dated 2024)
# Key:
# H526 cell line = experiment: Cell viability assay for H526 cell line; type: cell-based; conditions: Homo sapiens, NCI-H526, 120 h; H526 cells, 5 days, EZ-Cytox, 0.46-3000 nM
# Outline: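 NCI-H526 cells exposed to compounds for 5 days in a CO2 incubator; viability read as absorbance at 450 nm after 3 min plate shaking; IC50 derived from treatment response.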
# MRC-5 cell line = experiment: Cell viability assay for MRC-5 cell line; conditions: for IC50: Homo sapiens, MRC5, 120 h, read-out: Activity: IC50 value (nM) to MRC-5 cell line
# Experimental: (§1) Cell Viability Assay for MRC-5 Cell Line
# (1) Culture of MRC-5 Cell Line
# (§2) The MRC-5 cell line was purchased from Korea Cell Line Bank (KCLB), Seoul, Korea. Passage of cultured cells was maintained within P15.
# (§3) (2) Treatment of Compounds of the Present Invention
# (§4) 6×10^3 cells were seeded for each well of a 96-well plate (SPL), and the cells were cultured in total volume of 150 μL.
# (§5) Each well was mixed with a medium and treated, and the volume was set to 50 μL, so that the total volume of each well was 200 μL. Then, it was cultured in 37° C.
# (§6) The following compounds were used as comparative examples, and the cell viability assay was performed in the same manner as in the compounds of Examples.
# (3) Cytotoxicity Experiment
# (§7) After treating EZ-Cytox (DOGEN, Cat. NO. EZ-3000, Lot. No. DLS2112) 20 μL in each well of completely cultured plate, it was cultured in 37° C. CO2 incubator for 4 hours. […] The data were converted into graphs using the Prism (ver. 9) program.
# PLK1 = molecular target: T1, PLK1 (Homo sapiens, UniProt P53350); experiment: Luciferase assay for PLK1 in HeLa LgBit (Plk1-HiBit KI) cell line; type: cell-based; conditions: 300 nM compound, luminescence after 9 hours
# T1 construct: endogenous in cells; host or cells: HeLa cells stably expressing LgBit, with CRISPR/Cas9 knock-in of HiBit at the endogenous PLK1 locus
# Outline: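 HeLa LgBit cells with endogenous Plk1 C-terminally HiBiT-tagged by CRISPR knock-in were synchronized by 2 mM thymidine block for 24 h, then released and seeded. After 18 h, Endurazine was added and compounds were dosed at 300 nM. Luminescence was tracked in real time; activity is the ratio to DMSO.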
# [1] = Cell viability assay for MRC-5 cell line; conditions: human, MRC-5 cells (normal cell line)
# Experimental: as §1
# (1) Culture of MRC-5 Cell Line
# as §2, §3, §4, §5, §6
# (3) Cytotoxicity Experiment
# as §7
# T1 sequence (P53350 whole entry): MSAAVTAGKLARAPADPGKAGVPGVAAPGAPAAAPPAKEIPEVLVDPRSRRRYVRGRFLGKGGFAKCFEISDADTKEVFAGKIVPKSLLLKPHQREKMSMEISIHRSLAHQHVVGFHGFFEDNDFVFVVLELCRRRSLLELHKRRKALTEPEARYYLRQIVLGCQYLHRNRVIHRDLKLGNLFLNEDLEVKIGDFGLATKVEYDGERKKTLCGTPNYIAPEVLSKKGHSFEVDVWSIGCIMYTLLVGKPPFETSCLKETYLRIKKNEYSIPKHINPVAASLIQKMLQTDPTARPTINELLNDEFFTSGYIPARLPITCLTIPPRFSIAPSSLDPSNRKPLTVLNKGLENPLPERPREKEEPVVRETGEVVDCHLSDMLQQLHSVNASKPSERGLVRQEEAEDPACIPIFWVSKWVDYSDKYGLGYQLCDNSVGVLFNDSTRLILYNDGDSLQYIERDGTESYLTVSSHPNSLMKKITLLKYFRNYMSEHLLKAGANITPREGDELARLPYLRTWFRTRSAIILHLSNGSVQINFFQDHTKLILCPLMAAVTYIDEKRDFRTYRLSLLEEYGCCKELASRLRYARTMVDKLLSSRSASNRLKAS
SMILES,Activity: ratio of the luminescence value of each Exemplary Compound treatment group to DMSO treatment group (PLK1),IC50 (H526 cell line),IC50 (MRC-5 cell line),cytotoxicity in normal cell line (in words) (MRC-5 cell line; MRC-5 cell line),IC50 at 5 days [1]
"COc1cc(C(=O)NC2CC(N(C)CCC3CCN(c4cccc(C5CCC(=O)NC5=O)c4)CC3)C2)ccc1Nc1ncc2c(n1)N(C(C)C)CC1(CC1)C(=O)N2C (stereo not shown) [Compound 6, N-(3-((2-(1-(3-(2,6-dioxopiperidin-3-yl)phenyl)piperidin-4-yl)ethyl)(methyl)amino)cyclobutyl)-4-((9′-isopropyl-5′-methyl-6′-oxo-5′,6′,8′,9′-tetrahydrospiro[cyclopropane-1,7′-pyrimido[4,5-b][1,4]diazepin]-2′-yl)amino)-3-methoxybenzamide]",++ (++ <0.6),< 0.4 µM,12300 nM,,
"COc1cc(C(=O)NC2CC3(CCN(CC4CCN(c5ccc(C6CCC(=O)NC6=O)cc5)CC4)CC3)C2)ccc1Nc1ncc2c(n1)N(C(C)C)CC(F)(F)C(=O)N2C (stereo not shown) [Compound 19, 4-((7,7-difluoro-9-isopropyl-5-methyl-6-oxo-6,7,8,9-tetrahydro-5H-pyrimido[4,5-b][1,4]diazepin-2-yl)amino)-N-(7-((1-(4-(2,6-dioxopiperidin-3-yl)phenyl)piperidin-4-yl)methyl)-7-azaspiro[3.5]nonan-2-yl)-3-methoxybenzamide]",++ (++ <0.6),< 0.03 µM,13100 nM,,
"COc1cc(C(=O)NC2CC3(CCN(CC4CCN(c5ccc(C6CCC(=O)NC6=O)cc5F)CC4)CC3)C2)c(F)cc1Nc1ncc2c(n1)N(C(C)C)CC(F)(F)C(=O)N2C (stereo not shown) [Compound 14, 4-((7,7-difluoro-9-isopropyl-5-methyl-6-oxo-6,7,8,9-tetrahydro-5H-pyrimido[4,5-b][1,4]diazepin-2-yl)amino)-N-(7-((1-(4-(2,6-dioxopiperidin-3-yl)-2-fluorophenyl)piperidin-4-yl)methyl)-7-azaspiro[3.5]nonan-2-yl)-2-fluoro-5-methoxybenzamide]",++ (++ <0.6),< 0.05 µM,14700 nM,,
"COc1cc(C(=O)N[C@H]2CC[C@H](N(C)CCN3CCN(c4c(F)cc(C5CCC(=O)NC5=O)cc4F)CC3)CC2)ccc1Nc1ncc2c(n1)N(C(C)C)CC(F)(F)C(=O)N2C (stereo partly shown) [Compound 10, 4-((7,7-difluoro-9-isopropyl-5-methyl-6-oxo-6,7,8,9-tetrahydro-5H-pyrimido[4,5-b][1,4]diazepin-2-yl)amino)-N-((1r,4r)-4-((2-(4-(4-(2,6-dioxopiperidin-3-yl)-2,6-difluorophenyl)piperazin-1-yl)ethyl)(methyl)amino)cyclohexyl)-3-methoxybenzamide]",++ (++ <0.6),< 0.05 µM,15600 nM,,
"Cc1cc(C(=O)NC2CC3(CCN(CC4CCN(c5ccc(C6CCC(=O)NC6=O)cc5F)CC4)CC3)C2)c(F)cc1Nc1ncc2c(n1)N(C(C)C)CC(F)(F)C(=O)N2C (stereo not shown) [Compound 21, 4-((7,7-difluoro-9-isopropyl-5-methyl-6-oxo-6,7,8,9-tetrahydro-5H-pyrimido[4,5-b][1,4]diazepin-2-yl)amino)-N-(7-((1-(4-(2,6-dioxopiperidin-3-yl)-2-fluorophenyl)piperidin-4-yl)methyl)-7-azaspiro[3.5]nonan-2-yl)-2-fluoro-5-methylbenzamide]",++ (++ <0.6),< 0.05 µM,12600 nM,,
"COc1cc(C(=O)NC2CCC(N(C)CC3CCN(c4ccc(C5CCC(=O)NC5=O)cc4F)CC3)CC2)ccc1Nc1ncc2c(n1)N(C(C)C)CC(F)(F)C(=O)N2C (stereo not shown) [Compound 7, 4-((7,7-difluoro-9-isopropyl-5-methyl-6-oxo-6,7,8,9-tetrahydro-5H-pyrimido[4,5-b][1,4]diazepin-2-yl)amino)-N-((1r,4r)-4-(((1-(4-(2,6-dioxopiperidin-3-yl)-2-fluorophenyl)piperidin-4-yl)methyl)(methyl)amino)cyclohexyl)-3-methoxybenzamide]",+++ (+++: <0.3),< 0.03 µM,13000 nM,,
"CC[C@@H]1C(=O)N(C)c2cnc(Nc3ccc(C(=O)NCCOCCOCCNc4cccc5c4C(=O)N(C4CCC(=O)NC4=O)C5=O)cc3OC)nc2N1C1CCCC1 (stereo partly shown) [Comparative Compound 1, reference compound]",,,,high level of cytotoxicity in normal cell line,
"COc1cc(C(=O)NN2CC(F)(F)CC2CCN2CCN(c3ccc(C4CCC(=O)NC4=O)cc3F)CC2)ccc1Nc1ncc2c(n1)N(C(C)C)CC(F)(F)C(=O)N2C (stereo not shown) [Compound 17, 4-((7,7-difluoro-9-isopropyl-5-methyl-6-oxo-6,7,8,9-tetrahydro-5H-pyrimido[4,5-b][1,4]diazepin-2-yl)amino)-N-(2-(2-(4-(4-(2,6-dioxopiperidin-3-yl)-2-fluorophenyl)piperazin-1-yl)ethyl)-4,4-difluoropyrrolidin-1-yl)-3-methoxybenzamide]",++ (++ <0.6),< 0.05 µM,,,> 10 µM

# The next lines start with results.
Activity: ratio of the luminescence value of each Exemplary Compound treatment group to DMSO treatment group (PLK1),SMILES,IC50 (H526 cell line),IC50 (MRC-5 cell line),cytotoxicity in normal cell line (in words) (MRC-5 cell line; MRC-5 cell line),IC50 at 5 days [1]
++ (++ <0.6),"COc1cc(C(=O)N[C@H]2CC[C@H](N(C)CCN3CCN(c4ccc(C5CCC(=O)NC5=O)cc4F)CC3)CC2)ccc1Nc1ncc2c(n1)N(C(C)C)CC(F)(F)C(=O)N2C (stereo partly shown) [Compound 9, 4-((7,7-difluoro-9-isopropyl-5-methyl-6-oxo-6,7,8,9-tetrahydro-5H-pyrimido[4,5-b][1,4]diazepin-2-yl)amino)-N-((1r,4r)-4-((2-(4-(4-(2,6-dioxopiperidin-3-yl)-2-fluorophenyl)piperazin-1-yl)ethyl)(methyl)amino)cyclohexyl)-3-methoxybenzamide]",< 0.05 µM,16600 nM,,
++ (++ <0.6),"COc1cc(C(=O)NC2CC3(CCN(CC4CCN(c5c(F)cc(C6CCC(=O)NC6=O)cc5F)CC4)CC3)C2)ccc1Nc1ncc2c(n1)N(C(C)C)CC(F)(F)C(=O)N2C (stereo not shown) [Compound 15, 4-((7,7-difluoro-9-isopropyl-5-methyl-6-oxo-6,7,8,9-tetrahydro-5H-pyrimido[4,5-b][1,4]diazepin-2-yl)amino)-N-(7-((1-(4-(2,6-dioxopiperidin-3-yl)-2,6-difluorophenyl)piperidin-4-yl)methyl)-7-azaspiro[3.5]nonan-2-yl)-3-methoxybenzamide]",< 0.03 µM,17700 nM,,
++ (++ <0.6),"COc1cc(C(=O)NC2CCN(C3CC4(CCN(c5ccc(C6CCC(=O)NC6=O)cc5F)CC4)C3)CC2)ccc1Nc1ncc2c(n1)N(C(C)C)CC(F)(F)C(=O)N2C (stereo not shown) [Compound 39, 4-((7,7-difluoro-9-isopropyl-5-methyl-6-oxo-6,7,8,9-tetrahydro-5H-pyrimido[4,5-b][1,4]diazepin-2-yl)amino)-N-(1-(7-(4-(2,6-dioxopiperidin-3-yl)-2-fluorophenyl)-7-azaspiro[3.5]nonan-2-yl)piperidin-4-yl)-3-methoxybenzamide]",< 0.05 µM,5800 nM,,
++ (++ <0.6),"COc1cc(C(=O)NC2CCN(CC3CN(c4ccc(C5CCC(=O)NC5=O)cc4F)C3)CC2)ccc1Nc1ncc2c(n1)N(C(C)C)CC(F)(F)C(=O)N2C (stereo not shown) [Compound 12, 4-((7,7-difluoro-9-isopropyl-5-methyl-6-oxo-6,7,8,9-tetrahydro-5H-pyrimido[4,5-b][1,4]diazepin-2-yl)amino)-N-(1-((1-(4-(2,6-dioxopiperidin-3-yl)-2-fluorophenyl)azetidin-3-yl)methyl)piperidin-4-yl)-3-methoxybenzamide]",< 0.05 µM,24600 nM,,
